Source: patent US4788211A, “Antifungal compound and AFC complex produced from actinomadura SCC 1838” (priority 1987, dated 1988)
Converted amounts (≈) assume the structure as drawn.

Experiments:
Candida (seven species) = experiment: in vitro antifungal activity (geometric mean MIC), Candida; type: cell-based; conditions: for MIC: Candida, Candida (seven species)
Text: (§1) The in vitro antifungal results are summarized in Table II and provide the geometric mean MIC (mcg/mL).

[1] = system: Dermatophytes (six species); experiment: in vitro antifungal activity (geometric mean MIC), dermatophytes; type: cell-based; conditions: for MIC: Dermatophytes (six species)
Text: as §1

Candida = experiment: intravaginal Candida infection in hamsters; type: in vivo
iv LD50 in mice = conditions: mouse, in vivo
[2] = SDB (Sabouraud dextrose broth medium)

With N=C(N)NCCCCCCCCC(O)CCCCCCCC1NC(=N)NC1CC(O)CNC(=N)N (stereo not drawn) [compound of this invention] the MIC (Candida (seven species); EMEM (Eagles Minimum Essential Medium)) was under 0.03 µg/mL, the MIC (Candida (seven species); MA Medium) was at most 1.4 µg/mL and the MIC (Candida (seven species); [2]) was at least 58 µg/mL. The “in vitro antifungal activity” value (Candida (seven species); seven species of Candida) was “very good in vitro antifungal activity”, the MIC ([1]; MA Medium) was 2.5 µg/mL (≈ 5.02 µM) and the MIC [1, 2] was at most 0.13 µg/mL. For the same molecule, the “in vitro antifungal activity” value ([1]; six species of dermatophytes) was “very good in vitro antifungal activity”, the “activity against an intravaginal Candida infection” value (Candida) was “slight activity” and the LD50 (iv LD50 in mice) was about 1.5 mg/kg.
